Experimental data taken from patent publication US8541603B2, “Substituted cyclopentanes or cyclopentanones as therapeutic agents” (Allergan, Inc., priority 2008, dated 2013).

Tested on: lashes and adjacent hairs of the eyelids
Assay: Observation of lashes of glaucoma patients treated with bimatoprost in only one eye
Type: in vivo
Settings: glaucoma patient treated in one eye only
Text: In the course of treating patients having glaucoma, treatment may only be appropriate in one eye. […] The lash appearance on the lids of the treated eyes would have appeared quite attractive if it represented a bilateral phenomenon. As a result of its asymmetric nature, the long lashes on one side could be construed as disturbing from a cosmetic standpoint. A systemic examination was preformed as a result of the asymmetric phenomenon. It soon became apparent that this altered appearance was not an isolated finding. […] Definite differences could be identified to varying degrees in the lashes and adjacent hairs of all patients who were taking the drug on a unilateral basis for longer than 6 months.
The changes in the lashes were apparent on gross inspection in several patients once attention was focused on the issue. In those with light colored hair and lashes, the differences were only seen easily with the aid of the high magnification and lighting capabilities of the slit lamp biomicroscope. In the course of glaucoma follow-up examination, attention is generally immediately focused on the eye itself. As a result of the high power magnification needed only one eye is seen at a time and the eye is seen at a high enough power that the lashes are not in focus. […]

Structure (SMILES): CCNC(=O)CCC/C=C\C[C@@H]1[C@@H](/C=C/[C@@H](O)CCc2ccccc2)[C@H](O)C[C@@H]1O [bimatoprost]
- lashes in the treated eye versus the non-treated eye: longer, thicker, and fuller
